Reference: patent publication US5965088A, “Method for providing rapid disinfection of contact lenses” (priority 1997, dated 1999)

Tested on: Fusarium solani (ATCC 36031)
Assay: Antimicrobial efficacy (stand-alone log reduction), F. solani
Type: cell-based
Settings: for log reduction at 4 µg/mL: 4.0 ppm alexidine in ReNu MPS
Method: This Example illustrates the microbiocidal efficacy of solutions according to the present invention. The antimicrobial efficacy of each of various compositions for the chemical disinfection of contact lenses was evaluated. Microbial challenge inoculums were prepared using Pseudomonas aeruginosa (ATCC 9027), Staphylococcus aureus (ATCC 6538), Serratia marcescens (ATCC 13880), Candida albicans (ATCC 10231), and Fusarium solani (ATCC 36031). The test organisms were cultured on appropriate agar and the cultures were harvested using sterile DPBST (Dulbecco's Phosphate Buffered Saline plus 0.05% w/v polysorbate 80) or a suitable diluent and transferred to a suitable vessel. Spore suspensions were filtered through sterile glass wool to remove hyphal fragments. Serratia marcescens, as appropriate, was filtered (eg., through a 1.2 μ filter) to clarify the suspension. After harvesting, the suspension was centrifuged at no more than 5000× g for a maximum of 30 minutes at 20-25° C. The supernatant was poured off and resuspended in DPBST or other suitable diluent. The suspension was centrifuged a second time, and resuspended in DPBST or other suitable diluent. All challenge bacterial and fungal cell suspensions were adjusted with DPBST or other suitable diluent to 1×10^7 -10^8 cfu/mL. The appropriate cell concentration may be estimated by measuring the turbidity of the suspension, for example using a spectrophotometer at a preselected wavelength, for example 490 nm. One tube was prepared containing a minimum of 10 mL of test solution per challenge organism. Each tube of the solution to be tested was inoculated with a suspension of the test organism sufficient to provide a final count of 1.0×10^5 -10^6 cfu/mL, the volume of the inoculum not exceeding 1% of the sample volume. Dispersion of the inoculum was ensured by vortexing the sample for at least 15 seconds. The inoculated product was stored at 10-25° C. Aliquots in the amount of 1.0 mL were taken of the inoculated product for determination of viable counts after certain time periods of disinfection. The time points for the bacteria were 25, 50, 75, and 100% of the minimum disinfection time. Yeast and mold were tested at an additional timepoint of at least 400% of the minimum disinfection time. The suspension was mixed well by vortexing vigorously for at least 5 second. The 1.0 mL aliquots removed at the specified time intervals were subjected to a suitable series of decimal dilutions in validated neutralizing media. The suspensions were mixed vigorously and incubated for a suitable period of time to allow for neutralization of the microbial agent. The viable count of organisms was determined in appropriate dilutions by preparation of triplicate plates of trypticase soy (TSA) agar for bacteria and Sabouraud dextrose agar (SDA) for mold and yeast. The bacterial recovery plates were incubated at 30-35° C. for 2-4 days. The yeast was incubated at 20-30° C. for 2-4 days and mold recovery plates at 20-25° C. for 3-7 days. The average number of colony forming units was determined on countable plates. Countable plates refer to 30-300 cfu/plates for bacteria and yeast, and 8 to 80 cfu/plate for mold except when colonies are observed only for the 10^0 or 10^-1 dilution plates. The microbial reduction was then calculated at the specified time points. […] Following inoculation in a validated neutralizing broth and incubation for an appropriate period of time, the inoculum control must be between 1.0×10^5 -1.0×10^6 cfu/mL
The solutions were evaluated based on the performance requirement referred to as the "Stand-Alone Procedure for Disinfecting Products" (hereafter the "stand-alone test") and is based on the Disinfection Efficacy Testing for contact lens care products under the Draft Premarket Notification (510(k)) Guidance Document For Contact Lens Care Products dated Apr. 1, 1996, prepared by the U.S. Food and Drug Administration, Division of Ophthalmic Devices. […]

Question: `CCCCC(CC)CNC(=N)NC(=N)NCCCCCCNC(=N)NC(=N)NCC(CC)CCCC.Cl.Cl` (centres unmarked) [Alexidine.2HCl, 1,1 '-hexamethylenebis(5-(2-ethylhexyl)-biguanide) dihydrochloride] was tested. Which log reduction at 4 ppm (ATCC36031, 2.5 min, aged 18 months, Exp. 1, 2.5 min) did it give?
Answer: Its log reduction at 4 ppm is 2.5.

Question: And the log reduction at 4 ppm (ATCC36031, 2.5 min, aged 18 months, Exp. 2, 2.5 min)?
Answer: Its log reduction at 4 ppm is 2.5.

Question: And the log reduction at 4 ppm (ATCC36031, 2.5 min, aged 18 months, Exp. 3, 2.5 min)?
Answer: The log reduction at 4 ppm was 2.2.

Question: And the log reduction at 4 ppm (ATCC36031, 5 min, aged 18 months, Exp. 1, 5.0 min)?
Answer: The log reduction at 4 ppm was 4.3.

Question: What about the log reduction at 4 ppm (ATCC36031, 5 min, aged 18 months, Exp. 2, 5.0 min) of the same compound?
Answer: The log reduction at 4 ppm was 4.1.

Question: What about the log reduction at 4 ppm (ATCC36031, 5 min, aged 18 months, Exp. 3, 5.0 min) of the same compound?
Answer: The log reduction at 4 ppm was 2.1.

Question: What about the log reduction at 4 ppm (ATCC36031, 0.125 h, aged 18 months, Exp. 1, 7.5 min) of the same compound?
Answer: Its log reduction at 4 ppm is 4.6.

Question: What about the log reduction at 4 ppm (ATCC36031, 0.125 h, aged 18 months, Exp. 2, 7.5 min) of the same compound?
Answer: The log reduction at 4 ppm was 4.4.

Question: And the log reduction at 4 ppm (ATCC36031, 0.125 h, aged 18 months, Exp. 3, 7.5 min)?
Answer: The log reduction at 4 ppm was 2.4.

Question: What about the log reduction at 4 ppm (ATCC36031, 10 min, aged 18 months, Exp. 1, 10.0 min) of the same compound?
Answer: Its log reduction at 4 ppm is over 4.6.

Question: And the log reduction at 4 ppm (ATCC36031, 10 min, aged 18 months, Exp. 2, 10.0 min)?
Answer: The log reduction at 4 ppm was 4.5.

Question: And the log reduction at 4 ppm (ATCC36031, 10 min, aged 18 months, Exp. 3, 10.0 min)?
Answer: The log reduction at 4 ppm was 2.5.

Question: What about the log reduction at 4 ppm (ATCC36031, 0.25 h, Ex. 6, aged 19 months at 25 °C, 15 min) of the same compound?
Answer: The log reduction at 4 ppm was 3.4.

Question: And the log reduction at 4 ppm (ATCC36031, 0.25 h, Ex. 7, different lot aged 18 months, 15 min)?
Answer: Its log reduction at 4 ppm is 2.4.

Question: And the log reduction at 4 ppm (ATCC36031, 0.25 h, Ex. 8, different batch aged 19 months at 25 °C, 15 min)?
Answer: Its log reduction at 4 ppm is 3.6.

Question: And the log reduction at 4 ppm (ATCC36031, 0.5 h, Ex. 6, aged 19 months at 25 °C, 30 min)?
Answer: The log reduction at 4 ppm was 4.3.

Question: What about the log reduction at 4 ppm (ATCC36031, 0.5 h, Ex. 7, different lot aged 18 months, 30 min) of the same compound?
Answer: Its log reduction at 4 ppm is over 4.5.

Question: What about the log reduction at 4 ppm (ATCC36031, 0.5 h, Ex. 8, different batch aged 19 months at 25 °C, 30 min) of the same compound?
Answer: The log reduction at 4 ppm was over 4.6.

Question: And the log reduction at 4 ppm (ATCC36031, 40 min, aged 18 months, Exp. 1, 40.0 min)?
Answer: Its log reduction at 4 ppm is over 4.6.

Question: And the log reduction at 4 ppm (ATCC36031, 40 min, aged 18 months, Exp. 2, 40.0 min)?
Answer: Its log reduction at 4 ppm is over 4.5.

Question: What about the log reduction at 4 ppm (ATCC36031, 40 min, aged 18 months, Exp. 3, 40.0 min) of the same compound?
Answer: The log reduction at 4 ppm was over 4.6.

Question: What about the log reduction at 4 ppm (ATCC36031, 0.75 h, Ex. 6, aged 19 months at 25 °C, 45 min) of the same compound?
Answer: The log reduction at 4 ppm was 4.4.

Question: What about the log reduction at 4 ppm (ATCC36031, 0.75 h, Ex. 7, different lot aged 18 months, 45 min) of the same compound?
Answer: Its log reduction at 4 ppm is over 4.5.

Question: What about the log reduction at 4 ppm (ATCC36031, 0.75 h, Ex. 8, different batch aged 19 months at 25 °C, 45 min) of the same compound?
Answer: Its log reduction at 4 ppm is over 4.6.

Question: What about the log reduction at 4 µg/mL (ATCC36031, 1 h, 1 hr) of the same compound?
Answer: The log reduction at 4 µg/mL was 3.1.

Question: What about the log reduction at 4 ppm (ATCC36031, 1 h, Ex. 6, aged 19 months at 25 °C, 60 min) of the same compound?
Answer: The log reduction at 4 ppm was 4.2.

Question: What about the log reduction at 4 ppm (ATCC36031, 1 h, Ex. 7, different lot aged 18 months, 60 min) of the same compound?
Answer: The log reduction at 4 ppm was over 4.5.

Question: What about the log reduction at 4 ppm (ATCC36031, 1 h, Ex. 8, different batch aged 19 months at 25 °C, 60 min) of the same compound?
Answer: Its log reduction at 4 ppm is over 4.6.

Question: What about the log reduction at 4 µg/mL (ATCC36031, 2 h, 2 hr) of the same compound?
Answer: Its log reduction at 4 µg/mL is 4.1.

Question: And the log reduction at 4 µg/mL (ATCC36031, 3 h, 3 hr)?
Answer: Its log reduction at 4 µg/mL is 4.5.

Question: What about the log reduction at 4 µg/mL (ATCC36031, 4 h, 4 hr) of the same compound?
Answer: The log reduction at 4 µg/mL was 4.6.

Question: What about the log reduction at 4 ppm (ATCC36031, 4 h, Ex. 6, aged 19 months at 25 °C, 4 h) of the same compound?
Answer: Its log reduction at 4 ppm is over 4.4.

Question: And the log reduction at 4 ppm (ATCC36031, 4 h, Ex. 7, different lot aged 18 months, 4 hrs)?
Answer: Its log reduction at 4 ppm is over 4.5.

Question: And the log reduction at 4 ppm (ATCC36031, 4 h, Ex. 8, different batch aged 19 months at 25 °C, 4 hrs)?
Answer: The log reduction at 4 ppm was over 4.6.

Question: What about the log reduction at 4 µg/mL (ATCC36031, 24 h, 24 hr) of the same compound?
Answer: The log reduction at 4 µg/mL was over 4.6.
